Measured values taken from ChEMBL document CHEMBL6096628, “Discovery of a Highly Potent and Selective BRD9 PROTAC Degrader Based on E3 Binder Investigation for the Treatment of Hematological Tumors” (J Med Chem, 2024).
pIC50: −log10 of the molar value. Calls of active or inactive are those of the source. No cut-off for these calls is given here.

What was measured:
[1] = target: T1, Protein cereblon/Bromodomain-containing protein 9 (Homo sapiens, UniProt Q9H8M2+Q96SW2); assay: PROTAC activity at CRBN/BRD9 in human MV4-11 cells assessed as induction of BRD9 degradation at 1 nM by Western blot analysis relative to control; format: cell-based
Target sequence in this assay (Q96SW2 whole entry, looked up): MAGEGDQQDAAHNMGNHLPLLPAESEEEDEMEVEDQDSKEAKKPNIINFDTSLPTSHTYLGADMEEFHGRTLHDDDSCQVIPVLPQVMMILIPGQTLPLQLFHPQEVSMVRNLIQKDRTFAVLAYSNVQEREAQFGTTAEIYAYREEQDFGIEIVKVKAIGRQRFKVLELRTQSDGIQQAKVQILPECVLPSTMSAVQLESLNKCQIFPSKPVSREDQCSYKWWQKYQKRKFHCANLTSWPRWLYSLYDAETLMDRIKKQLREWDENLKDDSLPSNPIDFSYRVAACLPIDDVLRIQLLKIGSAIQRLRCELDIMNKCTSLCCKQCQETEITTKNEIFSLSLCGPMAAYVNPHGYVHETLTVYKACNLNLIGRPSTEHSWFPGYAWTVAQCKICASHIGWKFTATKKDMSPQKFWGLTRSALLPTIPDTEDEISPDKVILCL
Target sequence in this assay (Q9H8M2 whole entry, looked up): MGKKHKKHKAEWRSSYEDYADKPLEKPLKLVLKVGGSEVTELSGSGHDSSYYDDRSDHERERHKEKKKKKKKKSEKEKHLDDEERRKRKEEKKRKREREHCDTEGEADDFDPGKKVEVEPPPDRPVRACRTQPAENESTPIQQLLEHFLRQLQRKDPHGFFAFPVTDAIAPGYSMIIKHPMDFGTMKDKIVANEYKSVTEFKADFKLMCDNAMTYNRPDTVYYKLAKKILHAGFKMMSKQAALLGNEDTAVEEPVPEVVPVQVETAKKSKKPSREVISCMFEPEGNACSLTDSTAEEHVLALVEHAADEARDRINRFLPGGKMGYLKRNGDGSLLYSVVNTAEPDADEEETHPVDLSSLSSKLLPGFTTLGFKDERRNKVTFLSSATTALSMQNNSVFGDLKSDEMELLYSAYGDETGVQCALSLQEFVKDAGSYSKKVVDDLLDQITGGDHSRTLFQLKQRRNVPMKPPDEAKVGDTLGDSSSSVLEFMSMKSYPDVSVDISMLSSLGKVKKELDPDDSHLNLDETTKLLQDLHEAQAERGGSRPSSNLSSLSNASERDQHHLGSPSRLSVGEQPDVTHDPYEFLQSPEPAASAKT

[2] = target: T1, Protein cereblon/Bromodomain-containing protein 9; assay: PROTAC activity at CRBN/BRD9 in human MV4-11 cells assessed as induction of BRD9 degradation at 10 nM by Western blot analysis relative to control; format: cell-based
Target sequence in this assay (Q96SW2 whole entry, looked up): as the sequence (Q96SW2 whole entry, looked up) above
Target sequence in this assay (Q9H8M2 whole entry, looked up): as the sequence (Q9H8M2 whole entry, looked up) above

[3] = target: T1, Protein cereblon/Bromodomain-containing protein 9; assay: PROTAC activity at CRBN/BRD9 in human MV4-11 cells assessed as induction of BRD9 degradation at 100 nM by Western blot analysis relative to control; format: cell-based
Target sequence in this assay (Q96SW2 whole entry, looked up): as the sequence (Q96SW2 whole entry, looked up) above
Target sequence in this assay (Q9H8M2 whole entry, looked up): as the sequence (Q9H8M2 whole entry, looked up) above

MV4-11 [4] = assay: Antiproliferative activity against human MV4-11 cells assessed as inhibition of cell growth incubated for 7 days by MTS reagent based assay; format: functional; conditions: MV4-11, 168 h
MV4-11 [5] = assay: Antiproliferative activity against CRBN knockout human MV4-11 cells assessed as inhibition of cell growth incubated for 7 days by MTS reagent based assay; format: functional; conditions: MV4-11, 168 h
[6] = target: T1, Protein cereblon/Bromodomain-containing protein 9; assay: PROTAC activity at CRBN/BRD9 (unknown origin); format: protein assay
Target sequence in this assay (Q9H8M2 whole entry): as the sequence (Q9H8M2 whole entry, looked up) above
Target sequence in this assay (Q96SW2 whole entry): as the sequence (Q96SW2 whole entry, looked up) above

MOLM-13 = assay: Antiproliferative activity against human MOLM-13 cells assessed as inhibition of cell growth incubated for 7 days by MTS reagent based assay; format: functional; conditions: MOLM-13, 168 h
Kasumi 1 = assay: Antiproliferative activity against human Kasumi 1 cells assessed as inhibition of cell growth incubated for 7 days by MTS reagent based assay; format: functional; conditions: Kasumi 1, 168 h
OCI-Ly10 = assay: Antiproliferative activity against human OCI-Ly10 cells assessed as inhibition of cell growth incubated for 7 days by MTS reagent based assay; format: functional; conditions: OCI-Ly10, 168 h
SU-DHL-6 = assay: Antiproliferative activity against human SU-DHL-6 cells assessed as inhibition of cell growth incubated for 7 days by MTS reagent based assay; format: functional; conditions: SU-DHL-6, 168 h
U-937 = assay: Antiproliferative activity against human U-937 cells assessed as inhibition of cell growth incubated for 7 days by MTS reagent based assay; format: functional; conditions: time 7.0 day
SU-DHL-2 = assay: Antiproliferative activity against human SU-DHL-2 cells assessed as inhibition of cell growth incubated for 7 days by MTS reagent based assay; format: functional; conditions: SU-DHL-2, 168 h

SMILES | Activity [1] | Activity [2] | Activity [3] | pIC50 (MV4-11 [4]) | pIC50 (MV4-11 [5]) | DC50 [6] | pIC50 (MOLM-13) | pIC50 (OCI-Ly10) | pIC50 (SU-DHL-6) | pIC50 (SU-DHL-2) | pIC50 (Kasumi 1) | Activity (U-937)
COc1cc(-c2cn(C)c(=O)c3ccccc23)cc(OC)c1CN1CCN(c2ccc(C(=O)NC3CCC(=O)NC3=O)cn2)CC1 (centres undefined) | 33.3% | 39.3% | 50% | 5.60 | < 5.30 |  |  |  |  |  |  | 
COc1cc(-c2cn(C)c(=O)c3ccccc23)cc(OC)c1CN1CCN(c2ccc(C(=O)NC3CCC(=O)NC3=O)cc2)CC1 (centres undefined) | 26.7% | 32.3% | 35.7% | 5.50 | < 5.30 |  |  |  |  |  |  | 
COc1cc(-c2cn(C)c(=O)c3ccccc23)cc(OC)c1CN1CCN(c2ccc(NC3CCC(=O)NC3=O)cc2)CC1 (centres undefined) | 45.5% | 66% | 80.5% | 6.37 | < 5.30 |  |  |  |  |  |  | 
COc1cc(-c2cn(C)c(=O)c3ccccc23)cc(OC)c1CN1CCN(c2ccc(NC3CCC(=O)NC3=O)cn2)CC1 (centres undefined) | 41.7% | 46.7% | 59.3% | 5.78 | < 5.30 |  |  |  |  |  |  | 
COc1cc(-c2cn(C)c(=O)c3ccccc23)cc(OC)c1CN1CCN(c2ccc(OC3CCC(=O)NC3=O)cc2)CC1 (centres undefined) | 32% | 60.5% | 80.5% | 5.44 | < 5.30 |  |  |  |  |  |  | 
COc1cc(-c2cn(C)c(=O)c3ccccc23)cc(OC)c1CN1CCC(CN2CCN(c3ccc(NC4CCC(=O)NC4=O)cc3)CC2)CC1 (centres undefined) | 69.5% | 96.5% | 97.5% | 8.25 | < 5.30 |  |  |  |  |  |  | 
COc1cc(-c2cn(C)c(=O)c3ccccc23)cc(OC)c1CN1CCC(c2ccc3c4c(cccc24)C(=O)N3C2CCC(=O)NC2=O)CC1 (centres undefined) | 79.5% | 80.5% | 50.5% | 8.61 | < 5.30 |  |  |  |  |  |  | 

Now from value to compound, other results behind:

Activity [1] | Activity [2] | Activity [3] | pIC50 (MV4-11 [4]) | pIC50 (MV4-11 [5]) | DC50 [6] | pIC50 (MOLM-13) | pIC50 (OCI-Ly10) | pIC50 (SU-DHL-6) | pIC50 (SU-DHL-2) | SMILES | pIC50 (Kasumi 1) | Activity (U-937)
56% | 85.5% | 86.5% | 7.92 | < 5.30 |  |  |  |  |  | COc1cc(-c2cn(C)c(=O)c3ccccc23)cc(OC)c1CN1CCC(CN2CCN(c3ccc(NC4CCC(=O)NC4=O)cn3)CC2)CC1 (centres undefined) |  | 
6.9% | 74.9% | 93.9% | 7.45 | < 5.30 | 0.003 µM | 7.22 | 5.91 | 5.49 | 6.49 | COc1cc(-c2cn(C)c(=O)c(C)c2C)cc(OC)c1CN1CC[C@H](N2CCN(c3ccc(N[C@H]4CCC(=O)NC4=O)cc3F)CC2)C(F)(F)C1 (racemic) [SENDEGOBRESIB] | 7.84 | Active; Weak Inhibitory Effect Observed
34% | 74.7% | 86% | 7.75 | < 5.30 |  |  |  |  |  | COc1cc(-c2cn(C)c(=O)c3ccccc23)cc(OC)c1CN1CCN(c2ccc(NC3CCC(=O)NC3=O)cc2F)CC1 (centres undefined) |  | 
65% | 87.3% | 83.7% | 6.89 | < 5.30 |  |  |  |  |  | COc1cc(-c2cn(C)c(=O)c3ccccc23)cc(OC)c1CN1CCN(c2ccc(C3CCC(=O)NC3=O)cc2)CC1 (centres undefined) |  | 
12% | 8% | 25% | 6.16 | < 5.30 |  |  |  |  |  | COc1cc(-c2cn(C)c(=O)c3ccccc23)cc(OC)c1CN1CCN(c2ccc(N3CCC(=O)NC3=O)cc2)CC1 |  | 
18.3% | 21.3% | 65% | 5.35 | < 5.30 |  |  |  |  |  | COc1cc(-c2cn(C)c(=O)c3ccccc23)cc(OC)c1CN1CCN(c2ccc(C(=O)NC3CCC(=O)NC3=O)nc2)CC1 (centres undefined) |  | 
29.5% | 95.5% | 92% | 8.27 | < 5.30 |  |  |  |  |  | COc1cc(-c2cn(C)c(=O)c3ccccc23)cc(OC)c1CN1CCC(CN2CCN(c3ccc(C(=O)NC4CCC(=O)NC4=O)nc3)CC2)CC1 (centres undefined) |  | 
13% | 89% | 98% | 7.33 | < 5.30 |  |  |  |  |  | COc1cc(-c2cn(C)c(=O)c3ccccc23)cc(OC)c1CN1CCC(CN2CCN(c3ccc(OC4CCC(=O)NC4=O)cc3)CC2)CC1 (centres undefined) |  | 
 |  |  | 6.41 |  |  | 5.91 | 5.57 | 5.92 | 5.80 | CCn1cc(-c2cccc(C(F)(F)F)c2)c2sc(C(=N)NC3CCS(=O)(=O)CC3)cc2c1=O | 6.34 | Active; Weak Inhibitory Effect Observed
